Data: ChEMBL document CHEMBL5543136, “Discovery of Novel Heterotricyclic Compounds as DNA-Dependent Protein Kinase (DNA-PK) Inhibitors with Enhanced Chemosensitivity, Oral Bioavailability, and the Ability to Potentiate Cancer Immunotherapy” (J Med Chem, 2024)
Activity calls are given as the source filed them. The rule behind the calls is not given here.

Tests used:
[1] = biological target: DNA-dependent protein kinase catalytic subunit (Homo sapiens, UniProt P78527); assay: Inhibition of human full-length DNA-PK using EPPLSQEAFADLWKK as substrate incubated for 60 mins in presence of ATP by ADP-Glo kinase assay
Sequence of DNA-dependent protein kinase catalytic subunit (P78527 whole entry): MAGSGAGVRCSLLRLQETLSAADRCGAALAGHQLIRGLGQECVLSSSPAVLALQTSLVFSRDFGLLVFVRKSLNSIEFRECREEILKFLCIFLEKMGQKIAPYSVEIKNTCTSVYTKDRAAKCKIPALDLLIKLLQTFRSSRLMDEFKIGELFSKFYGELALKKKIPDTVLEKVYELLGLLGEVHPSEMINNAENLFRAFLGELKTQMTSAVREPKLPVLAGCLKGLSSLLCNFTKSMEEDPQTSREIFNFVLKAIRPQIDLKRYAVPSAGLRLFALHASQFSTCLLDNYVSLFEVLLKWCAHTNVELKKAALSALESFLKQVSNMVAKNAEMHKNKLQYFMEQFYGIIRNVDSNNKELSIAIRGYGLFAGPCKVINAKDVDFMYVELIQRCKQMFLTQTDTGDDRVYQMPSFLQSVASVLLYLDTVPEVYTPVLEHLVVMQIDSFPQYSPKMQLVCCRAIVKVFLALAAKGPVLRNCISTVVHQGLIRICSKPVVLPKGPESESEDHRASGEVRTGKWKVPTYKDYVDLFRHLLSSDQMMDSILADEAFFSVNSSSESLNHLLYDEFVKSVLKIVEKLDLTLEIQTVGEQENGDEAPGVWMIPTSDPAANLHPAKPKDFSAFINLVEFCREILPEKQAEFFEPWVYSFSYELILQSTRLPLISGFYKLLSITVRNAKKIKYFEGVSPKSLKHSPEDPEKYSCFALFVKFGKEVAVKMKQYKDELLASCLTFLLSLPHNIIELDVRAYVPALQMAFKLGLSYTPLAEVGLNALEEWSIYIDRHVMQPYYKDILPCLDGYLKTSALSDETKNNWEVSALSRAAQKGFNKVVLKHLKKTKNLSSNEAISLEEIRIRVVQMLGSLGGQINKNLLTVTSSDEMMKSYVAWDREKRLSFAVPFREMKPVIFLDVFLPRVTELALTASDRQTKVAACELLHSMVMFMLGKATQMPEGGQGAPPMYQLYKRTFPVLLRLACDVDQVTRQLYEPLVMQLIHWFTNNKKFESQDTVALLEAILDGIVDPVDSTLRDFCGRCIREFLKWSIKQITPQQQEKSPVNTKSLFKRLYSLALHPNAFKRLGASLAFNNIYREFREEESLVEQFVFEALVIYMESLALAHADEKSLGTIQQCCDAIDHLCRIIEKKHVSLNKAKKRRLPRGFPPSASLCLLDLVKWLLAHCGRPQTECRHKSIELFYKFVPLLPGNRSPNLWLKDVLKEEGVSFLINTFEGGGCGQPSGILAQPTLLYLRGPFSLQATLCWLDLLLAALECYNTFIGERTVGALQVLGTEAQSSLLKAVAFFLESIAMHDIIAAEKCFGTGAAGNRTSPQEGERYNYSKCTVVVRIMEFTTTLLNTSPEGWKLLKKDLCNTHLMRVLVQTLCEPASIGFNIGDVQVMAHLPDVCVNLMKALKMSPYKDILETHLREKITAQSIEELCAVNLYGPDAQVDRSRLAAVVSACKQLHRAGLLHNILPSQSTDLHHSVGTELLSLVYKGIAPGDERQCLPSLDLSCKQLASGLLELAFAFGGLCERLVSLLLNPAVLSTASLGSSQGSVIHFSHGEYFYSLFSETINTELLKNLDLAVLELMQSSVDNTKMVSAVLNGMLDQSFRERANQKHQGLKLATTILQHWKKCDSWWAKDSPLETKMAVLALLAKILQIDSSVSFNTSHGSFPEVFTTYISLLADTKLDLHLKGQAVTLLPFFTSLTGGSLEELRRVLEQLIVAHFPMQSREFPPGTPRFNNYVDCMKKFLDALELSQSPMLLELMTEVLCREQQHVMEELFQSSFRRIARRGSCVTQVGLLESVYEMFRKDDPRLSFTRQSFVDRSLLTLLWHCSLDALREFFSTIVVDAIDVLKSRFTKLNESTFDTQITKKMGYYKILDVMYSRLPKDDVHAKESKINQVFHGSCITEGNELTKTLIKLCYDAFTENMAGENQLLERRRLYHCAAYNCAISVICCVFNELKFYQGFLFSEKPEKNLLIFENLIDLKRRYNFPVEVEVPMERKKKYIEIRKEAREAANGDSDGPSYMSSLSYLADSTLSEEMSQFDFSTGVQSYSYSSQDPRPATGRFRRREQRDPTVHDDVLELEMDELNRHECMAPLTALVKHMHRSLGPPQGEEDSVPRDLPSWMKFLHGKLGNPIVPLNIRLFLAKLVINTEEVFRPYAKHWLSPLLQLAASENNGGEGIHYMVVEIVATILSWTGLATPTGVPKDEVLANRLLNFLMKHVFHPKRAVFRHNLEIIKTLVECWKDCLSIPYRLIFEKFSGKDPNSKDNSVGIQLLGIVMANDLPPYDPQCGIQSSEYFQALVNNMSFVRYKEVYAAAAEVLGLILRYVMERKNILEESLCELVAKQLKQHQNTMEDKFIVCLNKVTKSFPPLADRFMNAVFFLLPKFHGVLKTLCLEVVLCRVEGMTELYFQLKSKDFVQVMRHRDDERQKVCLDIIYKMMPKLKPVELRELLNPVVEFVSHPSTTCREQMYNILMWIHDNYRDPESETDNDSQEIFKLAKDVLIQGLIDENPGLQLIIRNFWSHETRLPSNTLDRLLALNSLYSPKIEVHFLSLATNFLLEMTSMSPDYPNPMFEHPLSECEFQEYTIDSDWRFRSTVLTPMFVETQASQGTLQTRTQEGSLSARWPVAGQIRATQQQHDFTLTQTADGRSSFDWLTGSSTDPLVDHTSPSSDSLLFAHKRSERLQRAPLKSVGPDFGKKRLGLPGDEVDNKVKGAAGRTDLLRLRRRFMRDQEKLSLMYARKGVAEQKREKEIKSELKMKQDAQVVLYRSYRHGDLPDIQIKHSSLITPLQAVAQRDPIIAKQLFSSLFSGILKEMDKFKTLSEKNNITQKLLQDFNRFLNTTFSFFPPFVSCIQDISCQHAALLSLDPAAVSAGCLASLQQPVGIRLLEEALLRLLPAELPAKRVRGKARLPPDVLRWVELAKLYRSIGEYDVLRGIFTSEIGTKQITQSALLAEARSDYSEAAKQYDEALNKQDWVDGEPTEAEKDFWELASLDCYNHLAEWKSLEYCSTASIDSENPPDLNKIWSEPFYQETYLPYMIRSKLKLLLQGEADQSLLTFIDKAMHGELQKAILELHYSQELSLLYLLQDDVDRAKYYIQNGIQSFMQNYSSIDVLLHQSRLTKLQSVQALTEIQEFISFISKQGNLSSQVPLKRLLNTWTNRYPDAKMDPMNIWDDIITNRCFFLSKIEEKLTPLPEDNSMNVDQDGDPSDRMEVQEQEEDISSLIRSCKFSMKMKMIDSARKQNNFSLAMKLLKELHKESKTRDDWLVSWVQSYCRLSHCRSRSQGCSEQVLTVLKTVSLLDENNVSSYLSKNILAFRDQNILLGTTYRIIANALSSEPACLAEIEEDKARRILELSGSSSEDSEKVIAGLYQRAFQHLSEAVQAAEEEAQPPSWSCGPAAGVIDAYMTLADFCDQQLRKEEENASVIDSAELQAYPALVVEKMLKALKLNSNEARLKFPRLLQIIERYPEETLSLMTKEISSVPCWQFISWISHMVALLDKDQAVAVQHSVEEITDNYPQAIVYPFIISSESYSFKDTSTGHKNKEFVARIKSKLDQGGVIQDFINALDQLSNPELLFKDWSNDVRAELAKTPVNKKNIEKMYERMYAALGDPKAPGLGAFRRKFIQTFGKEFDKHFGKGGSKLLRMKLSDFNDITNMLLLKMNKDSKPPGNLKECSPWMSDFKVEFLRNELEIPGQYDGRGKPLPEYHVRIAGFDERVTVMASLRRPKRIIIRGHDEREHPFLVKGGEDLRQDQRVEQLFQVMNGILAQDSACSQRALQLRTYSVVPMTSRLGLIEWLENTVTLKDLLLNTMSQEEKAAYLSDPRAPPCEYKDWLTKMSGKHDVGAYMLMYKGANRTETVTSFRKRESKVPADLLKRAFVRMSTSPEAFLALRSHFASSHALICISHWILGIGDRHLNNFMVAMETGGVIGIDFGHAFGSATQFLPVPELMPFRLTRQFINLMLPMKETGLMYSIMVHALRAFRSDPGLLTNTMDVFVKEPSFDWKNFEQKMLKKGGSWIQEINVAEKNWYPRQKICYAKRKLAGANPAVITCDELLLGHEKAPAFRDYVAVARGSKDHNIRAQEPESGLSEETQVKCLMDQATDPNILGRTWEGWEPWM

B16-F10 [2] = assay: Synergistic antiproliferative activity against mouse B16-F10 cells assessed as reduction in cell viability incubated for 48 hrs in presence of doxorubicin by CCK-8 assay; assay type: functional, cell-based; conditions: B16-F10, 48 h
Jurkat [3] = assay: Synergistic antiproliferative activity against human Jurkat cells assessed as reduction in cell viability incubated for 48 hrs in presence of doxorubicin by CCK-8 assay; assay type: functional, cell-based
[4] = Selectivity ratio of IC50 for antiproliferative activity against mouse B16-F10 cells to IC50 for synergistic antiproliferative activity against mouse B16-F10 cells in presence of doxorubicin; assay type: functional
Jurkat [5] = assay: Inhibition of DNA damage repair in human Jurkat cells assessed as reduction in gammaH2AX expression level by Western blot analysis; assay type: functional, cell-based; conditions: dose 0.1-5 µM
HepG2 [6] = assay: Inhibition of DNA damage repair in human HepG2 cells assessed as reduction in gammaH2AX expression level by Western blot analysis; assay type: functional, cell-based; conditions: dose 10-40 µM
HepG2 [7] = assay: Inhibition of DNA damage repair in human HepG2 cells assessed as reduction in gammaH2AX fluorescence intensity by DAPI staining based immunofluorescence analysis; assay type: functional, cell-based; conditions: dose 10-40 µM
Jurkat [8] = assay: Induction of cell cycle arrest in human Jurkat cells assessed as decrease in S phase cells at 1 uM incubated for 24 hrs in presence of doxorubicin by PI staining based flow cytometric analysis; assay type: functional
Cell membrane [9] = assay: Induction of mitochondrial membrane potential loss in human Jurkat cells at 1 uM incubated for 24 hrs by JC-1 staining based flow cytometric analysis; assay type: cell membranes
Cell membrane [10] = assay: Induction of mitochondrial membrane potential loss in human Jurkat cells at 1 uM incubated for 24 hrs in presence of doxorubicin by JC-1 staining based flow cytometric analysis; assay type: cell membranes
[11] = AUC (0 to t) in male Sprague-Dawley rat at 2 mg/kg, iv measured after 48 hrs by LC-MS/MS analysis; assay type: ADME, organism-based; conditions: in vivo
[12] = Tmax in male Sprague-Dawley rat at 2 mg/kg, iv measured after 48 hrs by LC-MS/MS analysis; assay type: ADME, organism-based; conditions: in vivo
[13] = Clearance in male Sprague-Dawley rat at 2 mg/kg, iv measured after 48 hrs by LC-MS/MS analysis; assay type: ADME, organism-based; conditions: in vivo
[14] = Apparent volume of distribution in male Sprague-Dawley rat at 2 mg/kg, iv measured after 48 hrs by LC-MS/MS analysis; assay type: ADME, organism-based; conditions: in vivo, read-out: Vz
[15] = Half-life in male Sprague-Dawley rat at 10 mg/kg, po measured after 48 hrs by LC-MS/MS analysis; assay type: ADME, organism-based; conditions: in vivo
[16] = Tmax in male Sprague-Dawley rat at 10 mg/kg, po measured after 48 hrs by LC-MS/MS analysis; assay type: ADME, organism-based; conditions: in vivo
[17] = Clearance in male Sprague-Dawley rat at 10 mg/kg, po measured after 48 hrs by LC-MS/MS analysis; assay type: ADME, organism-based; conditions: in vivo
CT26 [18] = assay: Antitumor activity against mouse CT26 cells implanted in BALB/c mouse assessed as reduction in tumor weight by measuring tumor growth inhibition at 10 mg/kg, ip QD co-administered with doxorubicin for 21 days relative to control; assay type: functional; conditions: CT26, 504 h, time 21 day, read-out: TGI
CT26 [19] = assay: Antitumor activity against mouse CT26 cells implanted in BALB/c mouse assessed as reduction in tumor volume by measuring tumor growth inhibition at 10 mg/kg, ip QD co-administered with doxorubicin for 21 days relative to control; assay type: functional; conditions: CT26, 504 h, time 21 day, read-out: TGI
[20] = Toxicity in BALB/c mouse implanted with mouse CT26 cells assessed as weight loss at 10 mg/kg, ip QD co-administered with doxorubicin for 21 days; assay type: organism-based; conditions: in vivo, 504 h, time 21 day
B16-F10 [21] = assay: Antitumor activity against mouse B16-F10 cells implanted in C57BL/6 mouse assessed as tumor growth inhibition at 10 mg/kg, ip administered once daily for 13 days relative to control; assay type: functional; conditions: B16-F10, 312 h, time 13 day, read-out: TGI
B16-F10 [22] = assay: Antitumor activity against mouse B16-F10 cells implanted in C57BL/6 mouse assessed as tumor growth inhibition at 10 mg/kg, ip QD co-administered with PD-L1 antibody for 13 days relative to control; assay type: functional; conditions: B16-F10, 312 h, time 13 day, read-out: TGI
[23] = Toxicity in C57BL/6 mouse implanted with mouse B16-F10 cells assessed as effect on body weight at 10 mg/kg, ip administered once daily for 13 days; assay type: organism-based; conditions: in vivo, 312 h, time 13 day
[24] = Toxicity in C57BL/6 mouse implanted with mouse B16-F10 cells assessed as effect on body weight at 10 mg/kg, ip QD co-administered with PD-L1 antibody for 13 days; assay type: organism-based; conditions: in vivo, 312 h, time 13 day
B16-F10 [25] = assay: Immunomodulatory activity in mouse B16-F10 cells implanted in C57BL/6 mouse assessed as percentage of CD3 positive CD4 positive cells in tumor at 10 mg/kg, ip QD co-administered with PD-L1 antibody for 13 days by flow cytometric analysis (reference value: 0.86%); assay type: functional; conditions: time 13 day
B16-F10 [26] = assay: Immunomodulatory activity in mouse B16-F10 cells implanted in C57BL/6 mouse assessed as percentage of CD3 positive CD4 positive cells in tumor at 10 mg/kg, ip QD co-administered with SWS1 for 13 days by flow cytometric analysis (reference value: 0.86%); assay type: functional; conditions: time 13 day
B16-F10 [27] = assay: Immunomodulatory activity in mouse B16-F10 cells implanted in C57BL/6 mouse assessed as percentage of CD3 positive CD8 positive cells in tumor at 10 mg/kg, ip administered once daily for 13 days by flow cytometric analysis (reference value: 0.99%); assay type: functional; conditions: time 13 day
B16-F10 [28] = assay: Immunomodulatory activity in mouse B16-F10 cells implanted in C57BL/6 mouse assessed as percentage of CD3 positive CD8 positive cells in tumor at 10 mg/kg, ip QD co-administered with PD-L1 antibody for 13 days by flow cytometric analysis (reference value: 0.99%); assay type: functional; conditions: time 13 day
B16-F10 [29] = assay: Immunomodulatory activity in mouse B16-F10 cells implanted in C57BL/6 mouse assessed as percentage of CD3 positive CD8 positive cells in tumor at 10 mg/kg, ip QD co-administered with SWS1 for 13 days by flow cytometric analysis (reference value: 0.99%); assay type: functional; conditions: time 13 day
[30] = Toxicity in C57BL/6 mouse implanted with mouse B16-F10 cells assessed as change in heart histopathology at 10 mg/kg, ip administered once daily for 13 days by H&E staining based analysis; assay type: organism-based; conditions: in vivo, 312 h, time 13 day
[31] = Toxicity in C57BL/6 mouse implanted with mouse B16-F10 cells assessed as change in spleen histopathology at 10 mg/kg, ip administered once daily for 13 days by H&E staining based analysis; assay type: organism-based; conditions: in vivo, 312 h, time 13 day
[32] = Toxicity in C57BL/6 mouse implanted with mouse B16-F10 cells assessed as change in lung histopathology at 10 mg/kg, ip administered once daily for 13 days by H&E staining based analysis; assay type: organism-based; conditions: in vivo, 312 h, time 13 day
[33] = Toxicity in C57BL/6 mouse implanted with mouse B16-F10 cells assessed as change in kidney histopathology at 10 mg/kg, ip administered once daily for 13 days by H&E staining based analysis; assay type: organism-based; conditions: in vivo, 312 h, time 13 day

SMILES: Cc1cc2cccnc2cc1Nc1ncc2c(n1)N(C1CCOCC1)Cc1nncn1-2
- IC50 [1]: 0.11 nM
- IC50 (B16-F10 [2]): 4900 nM
- IC50 (Jurkat [3]): 20 nM
- Ratio IC50 [4]: 2.1
- inhibition (Jurkat [5]): Dose-Dependent Effect
- inhibition (HepG2 [6]): Dose-Dependent Effect
- inhibition (HepG2 [7]): Dose-Dependent Effect
- Activity (Jurkat [8]): Active
- Activity (Cell membrane [9]): inactive
- Activity (Cell membrane [10]): Active
- AUC(0-t) at 48 h [11]: 604 ng·h/mL
- Tmax [12]: 4.98 min
- clearance [13]: 55 mL/min/kg
- Vd [14]: 4.7 L/kg
- half-life [15]: 2 h
- Tmax [16]: 1.4 h
- CL/F [17]: 210 mL/min/kg
- inhibition in vivo at 10 mg/kg (CT26 [18]): 50.2%
- inhibition in vivo at 10 mg/kg (CT26 [19]): 59.5%
- Activity [20]: Non-Toxic
- inhibition in vivo at 10 mg/kg (B16-F10 [21]): 35.9%
- inhibition in vivo at 10 mg/kg (B16-F10 [22]): 60.5%
- Activity [23]: Non-Toxic
- Activity [24]: Non-Toxic
- Activity (B16-F10 [25]): 4.06%
- Activity (B16-F10 [26]): 4.02%
- Activity (B16-F10 [27]): 1.12%
- Activity (B16-F10 [28]): 5.17%
- Activity (B16-F10 [29]): 5.17%
- Activity [30]: Non-Toxic
- Activity [31]: Non-Toxic
- Activity [32]: Non-Toxic
- Activity [33]: Non-Toxic
